These results are taken from ChEMBL document CHEMBL1132035, “Guanidine-substituted imidazoles as inhibitors of nitric oxide synthase” (Bioorg Med Chem Lett, 1999).

Experiment [1] concerns the target T1, Nitric oxide synthase 3 (Bos taurus, UniProt P29473).
T1 sequence (P29473 whole entry): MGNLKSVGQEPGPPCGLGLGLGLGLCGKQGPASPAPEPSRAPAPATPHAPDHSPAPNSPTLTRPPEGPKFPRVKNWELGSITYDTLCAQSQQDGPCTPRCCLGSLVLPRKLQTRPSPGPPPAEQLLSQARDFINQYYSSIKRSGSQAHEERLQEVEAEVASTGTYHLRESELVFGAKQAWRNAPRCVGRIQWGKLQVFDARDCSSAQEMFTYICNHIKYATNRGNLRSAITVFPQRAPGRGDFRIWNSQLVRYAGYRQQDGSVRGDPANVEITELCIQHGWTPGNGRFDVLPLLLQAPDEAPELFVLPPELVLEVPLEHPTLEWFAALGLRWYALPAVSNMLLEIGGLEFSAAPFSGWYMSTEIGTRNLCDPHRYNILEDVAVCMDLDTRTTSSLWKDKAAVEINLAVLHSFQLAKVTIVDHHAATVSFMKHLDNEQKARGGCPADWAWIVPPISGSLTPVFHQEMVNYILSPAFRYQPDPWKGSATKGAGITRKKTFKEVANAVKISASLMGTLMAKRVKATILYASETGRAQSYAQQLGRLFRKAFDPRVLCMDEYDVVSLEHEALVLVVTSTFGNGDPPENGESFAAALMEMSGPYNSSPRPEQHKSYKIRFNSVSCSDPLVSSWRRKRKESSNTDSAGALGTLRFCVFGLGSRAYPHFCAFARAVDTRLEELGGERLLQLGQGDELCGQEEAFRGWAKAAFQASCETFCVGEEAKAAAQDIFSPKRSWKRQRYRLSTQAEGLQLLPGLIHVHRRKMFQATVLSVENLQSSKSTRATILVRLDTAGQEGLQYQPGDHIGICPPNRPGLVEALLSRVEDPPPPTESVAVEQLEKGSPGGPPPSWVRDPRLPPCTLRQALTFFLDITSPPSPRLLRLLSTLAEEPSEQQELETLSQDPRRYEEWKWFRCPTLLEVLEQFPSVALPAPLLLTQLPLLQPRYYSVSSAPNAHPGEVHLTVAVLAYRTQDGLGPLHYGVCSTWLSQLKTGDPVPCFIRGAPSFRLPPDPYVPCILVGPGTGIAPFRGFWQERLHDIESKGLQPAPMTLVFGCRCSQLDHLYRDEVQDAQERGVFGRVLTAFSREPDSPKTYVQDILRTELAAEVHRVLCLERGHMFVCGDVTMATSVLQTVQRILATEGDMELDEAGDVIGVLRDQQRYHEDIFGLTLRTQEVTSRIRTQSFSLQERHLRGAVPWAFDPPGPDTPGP
In words: Compound was evaluated as nitric oxide producing substrate of bovine Endothelial nitric oxide synthase using the Griess assay; NA means Not active.

For experiment [2], the target named is T2, Nitric oxide synthase 1 (Rattus norvegicus, UniProt P29476). The experiment in a line: Compound was evaluated as nitric oxide producing substrate of rat Neuronal nitric oxide synthase using the Griess assay; NA means Not active.
Experiment [3] addresses T3, Nitric oxide synthase, inducible (Mus musculus, UniProt P29477).
T3 sequence (P29477 whole entry): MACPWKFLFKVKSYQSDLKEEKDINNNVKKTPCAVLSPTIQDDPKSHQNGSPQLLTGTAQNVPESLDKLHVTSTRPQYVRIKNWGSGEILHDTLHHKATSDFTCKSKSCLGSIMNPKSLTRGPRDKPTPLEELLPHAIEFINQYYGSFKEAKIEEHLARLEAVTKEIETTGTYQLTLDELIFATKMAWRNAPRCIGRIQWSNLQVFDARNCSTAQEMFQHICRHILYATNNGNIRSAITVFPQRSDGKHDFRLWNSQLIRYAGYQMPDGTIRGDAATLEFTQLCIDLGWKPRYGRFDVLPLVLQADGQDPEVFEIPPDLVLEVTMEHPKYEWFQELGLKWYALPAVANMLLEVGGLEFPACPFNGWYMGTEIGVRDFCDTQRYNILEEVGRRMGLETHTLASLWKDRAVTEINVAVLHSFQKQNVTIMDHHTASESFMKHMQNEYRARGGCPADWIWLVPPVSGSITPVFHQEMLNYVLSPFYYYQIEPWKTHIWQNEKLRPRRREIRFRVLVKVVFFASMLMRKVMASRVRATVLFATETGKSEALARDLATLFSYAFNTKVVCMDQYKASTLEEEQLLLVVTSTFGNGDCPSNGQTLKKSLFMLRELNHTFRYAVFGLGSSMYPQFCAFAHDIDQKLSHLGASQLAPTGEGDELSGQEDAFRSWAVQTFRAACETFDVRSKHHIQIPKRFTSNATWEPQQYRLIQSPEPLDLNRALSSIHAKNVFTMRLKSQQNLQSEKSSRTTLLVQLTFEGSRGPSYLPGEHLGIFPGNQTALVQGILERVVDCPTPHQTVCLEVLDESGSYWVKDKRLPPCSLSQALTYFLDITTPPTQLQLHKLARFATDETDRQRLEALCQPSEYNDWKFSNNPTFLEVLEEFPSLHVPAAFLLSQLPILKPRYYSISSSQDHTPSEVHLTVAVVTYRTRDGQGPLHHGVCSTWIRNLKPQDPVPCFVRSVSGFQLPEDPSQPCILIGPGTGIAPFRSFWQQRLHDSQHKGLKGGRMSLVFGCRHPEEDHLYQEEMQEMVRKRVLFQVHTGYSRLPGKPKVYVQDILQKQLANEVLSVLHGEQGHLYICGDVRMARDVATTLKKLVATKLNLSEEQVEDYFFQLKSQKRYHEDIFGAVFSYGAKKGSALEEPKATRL
The experiment in a line: Compound was evaluated as nitric oxide producing substrate of mouse Inducible nitric oxide synthase using the Griess assay; NA means Not active.

Experiment [4] deals with T3, Nitric oxide synthase, inducible. In words: Inhibition of purified mouse inducible nitric oxide synthase catalyzed [14C]L-citrulline production at a compound concentration of 1 mM in presence of 50 uM L-arginine.
For experiment [5], the target named is T1, Nitric oxide synthase 3. The experiment in a line: Inhibition of bovine endothelial nitric oxide synthase catalyzed [14C]L-citrulline production at a compound concentration of 1 mM in presence of 50 uM L-arginine.
Experiment [6] has as its target T2, Nitric oxide synthase 1. In words: Inhibition of rat neuronal nitric oxide synthase catalyzed [14C]L-citrulline production at a compound concentration of 1 mM in presence of 50 uM L-arginine.

T2 sequence (P29476 whole entry): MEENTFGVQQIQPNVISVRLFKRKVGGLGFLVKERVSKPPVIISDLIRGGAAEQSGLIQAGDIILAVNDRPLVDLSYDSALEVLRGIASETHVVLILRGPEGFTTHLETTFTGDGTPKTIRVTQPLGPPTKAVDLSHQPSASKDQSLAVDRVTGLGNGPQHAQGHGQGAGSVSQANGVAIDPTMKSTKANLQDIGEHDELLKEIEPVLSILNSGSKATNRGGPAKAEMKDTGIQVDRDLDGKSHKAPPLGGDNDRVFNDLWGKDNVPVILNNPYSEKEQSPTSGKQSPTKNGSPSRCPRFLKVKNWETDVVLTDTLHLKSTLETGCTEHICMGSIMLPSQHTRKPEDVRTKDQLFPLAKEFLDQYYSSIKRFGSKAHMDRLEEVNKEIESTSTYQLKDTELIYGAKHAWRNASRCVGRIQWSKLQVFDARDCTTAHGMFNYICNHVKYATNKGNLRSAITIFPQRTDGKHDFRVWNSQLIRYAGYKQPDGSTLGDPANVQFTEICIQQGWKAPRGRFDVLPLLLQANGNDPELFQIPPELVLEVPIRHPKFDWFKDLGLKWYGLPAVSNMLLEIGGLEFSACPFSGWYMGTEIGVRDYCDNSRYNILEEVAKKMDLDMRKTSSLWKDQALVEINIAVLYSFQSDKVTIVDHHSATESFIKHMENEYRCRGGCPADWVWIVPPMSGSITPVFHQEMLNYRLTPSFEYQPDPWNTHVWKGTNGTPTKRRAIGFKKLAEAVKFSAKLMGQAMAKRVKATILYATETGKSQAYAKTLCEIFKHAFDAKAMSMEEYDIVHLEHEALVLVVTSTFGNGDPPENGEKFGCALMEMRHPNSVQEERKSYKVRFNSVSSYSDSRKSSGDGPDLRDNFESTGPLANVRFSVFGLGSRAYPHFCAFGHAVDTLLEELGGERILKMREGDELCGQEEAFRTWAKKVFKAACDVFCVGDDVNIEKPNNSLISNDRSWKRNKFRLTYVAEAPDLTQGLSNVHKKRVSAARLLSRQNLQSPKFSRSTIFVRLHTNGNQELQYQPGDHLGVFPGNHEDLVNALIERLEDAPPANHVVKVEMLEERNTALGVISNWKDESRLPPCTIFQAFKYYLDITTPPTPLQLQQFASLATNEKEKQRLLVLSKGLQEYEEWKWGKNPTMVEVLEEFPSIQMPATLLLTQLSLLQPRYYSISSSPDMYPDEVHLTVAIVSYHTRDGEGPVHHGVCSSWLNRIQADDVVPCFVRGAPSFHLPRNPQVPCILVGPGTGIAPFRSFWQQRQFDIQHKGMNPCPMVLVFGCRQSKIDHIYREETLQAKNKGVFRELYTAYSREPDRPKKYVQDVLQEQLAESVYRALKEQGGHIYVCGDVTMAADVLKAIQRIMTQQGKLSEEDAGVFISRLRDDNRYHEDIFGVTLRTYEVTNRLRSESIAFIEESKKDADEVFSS

Take `N=C(N)NCCc1ncc[nH]1`: the NO-producing substrate activity result at Nitric oxide synthase 3 [1] is listed as “Not Active”. The “NO production as substrate” value (on Nitric oxide synthase 1 [2]; in experiment [3]) was “Not Active” in each case.
Regarding `N/C(=N\CCC[C@H](N)C(=O)O)NCc1c[nH]cn1`, at Nitric oxide synthase 3 [1], the NO-producing substrate activity result is reported as “Not Active”. Further, the “NO production as substrate” value (on Nitric oxide synthase 1 [2]; in experiment [3]) was “Not Active” each time.
Take `c1ccc(-c2ncc[nH]2)cc1` [2-PHENYLIMIDAZOLE]: the IC50 in experiment [4] is above 1000 µM.
With `N/C(=N\CCC[C@@H](N)C(=O)O)NCCc1c[nH]cn1`, the IC50 at Nitric oxide synthase 3 [5] was found to be 1090 µM.
Turning to `N/C(=N\CCC[C@@H](N)C(=O)O)NCc1ncc[nH]1`, the results for the IC50 at Nitric oxide synthase 3 [5] and on Nitric oxide synthase 1 [6] were 347 µM and 1590 µM, respectively.
As for `c1c[nH]cn1` [IMIDAZOLE], in experiment [4], the IC50 was found to be 40 µM.
The same measure, in the same setting: the value for `N=C(N)NCc1ncc[nH]1` was 138 µM.
Take `N=C(N)NCCc1c[nH]cn1`: on Nitric oxide synthase 3 [1], the NO-producing substrate activity entry is listed as “Not Active”. Further, the “NO production as substrate” value (at Nitric oxide synthase 1 [2]; in experiment [3]) was “Not Active” in each case.
For the compound `N=C(N)NCc1c[nH]cn1`, the NO-producing substrate activity entry on Nitric oxide synthase 3 [1] was “Not Active”. The “NO production as substrate” value (on Nitric oxide synthase 1 [2]; in experiment [3]) was “Not Active” each time.
Consider `N/C(=N\CCC[C@@H](N)C(=O)O)NCCc1ncc[nH]1`, for which the results for the IC50 on Nitric oxide synthase 3 [5] and at Nitric oxide synthase 1 [6] were 629 µM and 1490 µM, respectively.
